From patent US9133162B2, “Substituted quinoline compounds and methods of use” (SUNSHINE LAKE PHARMA CO., LTD., priority 2011, dated 2015)
“Also recorded” adds a separate entry of the source.

Legend:
[1] = molecular target: c-Met (Homo sapiens (Human), UniProt P08581); test: cell-based
Experimental: The autophosphorylation level was determined Sandwich-ELISA technique. IC50 values are determined by testing 8 compound concentrations in semi-logarithmic steps (each concentration in duplicates). The steps of the cellular phosphorylation assay are illustrated in FIG. 1.
c-Met Phosphorylation Assay:
The human gastric adenocarcinoma cell line MKN45 is known to overexpress c-Met. c-Met overexpression results in a constitutive, ligand-independent autophosphorylation of the kinase. […] Phospho-MET signal is subsequently quantified by Sandwich-ELISA technique. The assay is validated based on known inhibitors of MET kinase activity.

[2] = test system: NCI-H441 lung adenocarcinoma epithelial cells; test: NCI-H441 tumor xenograft model, TGI; type: in vivo, athymic nude mice; settings: 20 mg/kg p.o. QD, 21 days
Experimental: (§1) The efficacy of compounds disclosed herein was evaluated in a standard murine model of tumorigenesis. Human tumor cells (U87MG glioblastoma cells, MKN45 Gastric Adenocarcinoma cells, Caki-1 renal carcinoma cells, HUH 7 hepatocarcinoma cells, NCI-H441 lung adenocarcinoma epithelial cells, MDA-MB-231 breast adenocarcinoma cells, SMMC-7721 hepatoma cells, all from ATCC) were expended in culture, harvested, and injected subcutaneously onto the rear flank of 6-7 week old female athymic nude mice (BALB/cA nu/nu, Shanghai SLAC Laboratory Animal, Co.) (n=10 for vehicle group, n=8 for each dosing group). When tumors reached a volume of 100-250 mm^3, animals were randomly divided into vehicle control (for example, 2% HPMC+1% Tween-80 in water) and compound groups. […]
(§2) Progression of tumor growth is assessed by tumor volumes and recorded as a function of time. The long (L) and short (W) axes of the subcutaneous tumors were measured with calipers twice weekly, and the tumor volume (TV) calculated as (L×W^2)/2). TGI was calculated from the difference between the median tumor volumes of vehicle-treated and drug-treated mice, expressed as a percentage of the median tumor volume of the vehicle-treated control group, by the following relation: […]

[3] = test system: HUH 7 hepatocarcinoma cells; test: Huh-7 tumor xenograft model, TGI; type: in vivo, athymic nude mice; settings: 20 mg/kg p.o. QD, 14 days
Experimental: as §1, §2

[4] = test system: MDA-MB-231 breast adenocarcinoma cells; test: MDA-MB-231 tumor xenograft model, TGI; type: in vivo, athymic nude mice; settings: for TGI % (on last day of dosing) MDA-MB-231: 21 days (Day 21); for inhibition of growth of MDA-MB-231 xenograft tumors (in words): 10, 20 and 40 mg/kg p.o. QD, 21 days
Experimental: The efficacy of compounds disclosed herein was evaluated in a standard murine model of tumorigenesis. Human tumor cells (U87MG glioblastoma cells, MKN45 Gastric Adenocarcinoma cells, Caki-1 renal carcinoma cells, HUH 7 hepatocarcinoma cells, NCI-H441 lung adenocarcinoma epithelial cells, MDA-MB-231 breast adenocarcinoma cells, SMMC-7721 hepatoma cells, all from ATCC) were expended in culture, harvested, and injected subcutaneously onto the rear flank of 6-7 week old female athymic nude mice (BALB/cA nu/nu, Shanghai SLAC Laboratory Animal, Co.) (n=10 for vehicle group, n=8 for each dosing group). When tumors reached a volume of 100-250 mm^3, animals were randomly divided into vehicle control (for example, 2% HPMC+1% Tween-80 in water) and compound groups. Subsequent administration of compound by oral gavage (for example, 3-50 mpk/dose, dissolved in 2% HPMC+1% Tween-80 in water) begins anywhere from day 0 to day 15 post tumor cell challenge and generally continues with once a day for the duration of the experiment. The studies using tumor xenograft animal models described herein were performed at Shanghai Institute of Materia Medica, Chinese Academy of Sciences, 555 Zu Chong Zhi Road, Zhang Jiang Hi-Tech Park, Pudong, Shanghai, 201203, China.
Progression of tumor growth is assessed by tumor volumes and recorded as a function of time. The long (L) and short (W) axes of the subcutaneous tumors were measured with calipers twice weekly, and the tumor volume (TV) calculated as (L×W^2)/2). TGI was calculated from the difference between the median tumor volumes of vehicle-treated and drug-treated mice, expressed as a percentage of the median tumor volume of the vehicle-treated control group, by the following relation:
Initial statistical analysis is done by repeated measures analysis of variance (RMANOVA). Followed by Scheffe psot hoc testing for multiple comparisons. Vehicle alone (2% HPMC+1% Tween-80, or the like) is the negative control.
FIG. 2 illustrates the tumor growth inhibition effects of Example 1 in MDA-MB-231 breast adenocarcinoma model. Example 1 was administrated orally (p.o.) at doses of 10, 20 and 40 mg/kg once a day (QD), for 21 consecutive days.
FIG. 3 illustrates the tumor growth inhibition effects of Example 2 in MDA-MB-231 breast adenocarcinoma model. Example 2 was administrated orally (p.o.) at doses of 10, 20 and 40 mg/kg once a day (QD), for 21 consecutive days.

[5] = molecular target: Axl (h) (Homo sapiens (Human), UniProt P30530); test: Axl (h) kinase assay; type: biochemical
Axl (h), sequence (P30530 26-894): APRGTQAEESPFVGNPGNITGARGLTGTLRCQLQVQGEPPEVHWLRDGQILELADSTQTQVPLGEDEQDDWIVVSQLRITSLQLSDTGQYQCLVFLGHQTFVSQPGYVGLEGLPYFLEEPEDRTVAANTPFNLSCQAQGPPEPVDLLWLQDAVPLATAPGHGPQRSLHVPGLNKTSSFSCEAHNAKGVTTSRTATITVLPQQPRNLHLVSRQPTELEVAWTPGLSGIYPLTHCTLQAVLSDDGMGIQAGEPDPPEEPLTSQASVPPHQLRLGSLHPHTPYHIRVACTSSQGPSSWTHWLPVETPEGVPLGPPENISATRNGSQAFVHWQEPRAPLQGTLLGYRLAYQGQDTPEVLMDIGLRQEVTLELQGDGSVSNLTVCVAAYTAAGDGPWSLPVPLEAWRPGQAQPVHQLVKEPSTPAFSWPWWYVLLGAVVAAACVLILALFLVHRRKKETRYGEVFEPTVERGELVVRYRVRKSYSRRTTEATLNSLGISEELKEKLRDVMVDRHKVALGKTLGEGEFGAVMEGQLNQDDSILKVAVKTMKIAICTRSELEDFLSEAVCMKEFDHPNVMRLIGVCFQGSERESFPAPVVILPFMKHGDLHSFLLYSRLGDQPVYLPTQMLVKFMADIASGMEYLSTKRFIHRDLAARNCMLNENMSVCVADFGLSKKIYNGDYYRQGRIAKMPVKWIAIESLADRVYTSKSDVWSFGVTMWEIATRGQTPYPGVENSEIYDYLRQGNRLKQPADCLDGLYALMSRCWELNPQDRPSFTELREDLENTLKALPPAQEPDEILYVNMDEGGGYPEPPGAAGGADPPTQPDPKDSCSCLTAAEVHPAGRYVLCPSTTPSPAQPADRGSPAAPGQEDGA
Experimental: Compound dilutions are performed in DMSO and added to assay wells to a final DMSO concentration of 1%. Each data point is measured in duplicate, and at least two duplicate assays are performed for each individual compound determination. Enzyme is added to final concentrations of 10 nM or 20 nM, for example.
The above assay procedure can be used to determine the IC50 for inhibition and/or the inhibition constant, Ki.
(specific activity approx. 500 cpm/pmol, concentration as required). The reaction is initiated by the addition of the MgATP mix. After incubation for 40 minutes at room temperature, the reaction is stopped by the addition of 3% phosphoric acid solution. 10 μL of the reaction is then spotted onto a P30 filtermat and washed three times for 5 minutes in 75 mM phosphoric acid and once in methanol prior to drying and scintillation counting.

[6] = test system: MKN45 Gastric Adenocarcinoma cells; test: MKN45 tumor xenograft model, TGI; type: in vivo, athymic nude mice; settings: 20 mg/kg p.o. QD, 16 days
Experimental: as §1, §2

[7] = molecular target: KDR (h) (VEGF-R2(h)) (Homo sapiens (Human), UniProt P35968); test: KDR (h) (VEGF-R2(h)) kinase assay; type: biochemical
KDR (h) (VEGF-R2(h)), sequence (P35968 20-1356): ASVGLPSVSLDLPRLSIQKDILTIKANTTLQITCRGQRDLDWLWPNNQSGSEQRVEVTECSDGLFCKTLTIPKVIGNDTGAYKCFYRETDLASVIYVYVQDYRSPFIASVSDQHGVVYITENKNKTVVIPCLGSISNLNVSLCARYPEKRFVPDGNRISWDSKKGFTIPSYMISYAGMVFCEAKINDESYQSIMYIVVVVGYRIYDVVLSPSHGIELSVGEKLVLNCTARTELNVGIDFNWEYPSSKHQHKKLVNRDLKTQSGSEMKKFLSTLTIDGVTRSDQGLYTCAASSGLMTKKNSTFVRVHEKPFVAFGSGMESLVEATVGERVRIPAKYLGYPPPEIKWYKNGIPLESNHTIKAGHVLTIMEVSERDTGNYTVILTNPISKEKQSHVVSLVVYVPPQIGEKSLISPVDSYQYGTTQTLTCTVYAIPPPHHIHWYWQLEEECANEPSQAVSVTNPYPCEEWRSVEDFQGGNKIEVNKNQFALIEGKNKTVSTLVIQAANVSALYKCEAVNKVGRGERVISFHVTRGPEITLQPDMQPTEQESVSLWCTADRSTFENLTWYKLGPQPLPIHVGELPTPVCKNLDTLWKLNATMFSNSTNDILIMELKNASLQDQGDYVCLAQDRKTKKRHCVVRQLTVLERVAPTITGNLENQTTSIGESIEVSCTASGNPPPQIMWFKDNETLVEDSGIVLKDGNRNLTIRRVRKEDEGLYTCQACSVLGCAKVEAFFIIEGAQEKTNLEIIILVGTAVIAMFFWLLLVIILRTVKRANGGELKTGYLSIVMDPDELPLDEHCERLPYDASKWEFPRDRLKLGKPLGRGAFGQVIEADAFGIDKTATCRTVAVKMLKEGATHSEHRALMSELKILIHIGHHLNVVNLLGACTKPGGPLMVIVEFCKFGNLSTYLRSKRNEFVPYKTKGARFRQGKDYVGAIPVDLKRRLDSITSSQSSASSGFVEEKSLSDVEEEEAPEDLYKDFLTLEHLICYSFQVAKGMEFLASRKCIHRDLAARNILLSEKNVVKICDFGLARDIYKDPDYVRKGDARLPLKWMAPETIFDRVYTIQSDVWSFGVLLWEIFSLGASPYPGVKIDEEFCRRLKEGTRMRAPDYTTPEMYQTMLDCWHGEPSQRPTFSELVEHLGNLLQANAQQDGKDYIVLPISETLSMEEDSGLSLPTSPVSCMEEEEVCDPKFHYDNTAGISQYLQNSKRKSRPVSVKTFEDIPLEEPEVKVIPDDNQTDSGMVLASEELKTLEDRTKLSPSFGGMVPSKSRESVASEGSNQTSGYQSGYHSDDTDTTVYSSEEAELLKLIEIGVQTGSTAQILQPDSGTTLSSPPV
Experimental: Kinase assays can be performed by measurement of incorporation of —^33P ATP into immobilized myelin basic protein (MBP). High binding white 384 well plates (Greiner) are coated with MBP (Sigma #M-1891) by incubation of 60 μl/well of 20 μg/ml MBP in Tris-buffered saline (TBS; 50 mM Tris pH 8.0, 138 mM NaCl, 2.7 mM KCl) for 24 hours at 4° C. Plates are washed 3× with 100 μl TBS. Kinase reactions are carried out in a total volume of 34 μl in kinase buffer (5 mM Hepes pH 7.6, 15 mM NaCl, 0.01% bovine gamma globulin (Sigma #I-5506), 10 mM MgCl2, 1 mM DTT, 0.02% TritonX-100). Compound dilutions are performed in DMSO and added to assay wells to a final DMSO concentration of 1%. Each data point is measured in duplicate, and at least two duplicate assays are performed for each individual compound determination. Enzyme is added to final concentrations of 10 nM or 20 nM, for example. A mixture of unlabeled ATP and —^33P ATP is added to start the reaction (2×10^6 cpm of —^33P ATP per well (3000 Ci/mmole) and 10 μM unlabeled ATP, typically. The reactions are carried out for 1 hour at room temperature with shaking. Plates are washed 7× with TBS, followed by the addition of 50 μl/well scintillation fluid (Wallac). Plates are read using a Wallac Trilux counter. This is only one format of such assays; various other formats are possible, as known to one skilled in the art.
The above assay procedure can be used to determine the IC50 for inhibition and/or the inhibition constant, Ki. The IC50 is defined as the concentration of compound required to reduce the enzyme activity by 50% under the condition of the assay. The IC50 value is estimated by preparing a 10 point curve using a log dilution series (for example, a typical curve may be prepared using the following compound concentrations; 100 μM, 30 μM, 10 μM, 3 μM, 1 μM, 0.3 μM, 0.1 μM, 0.03 μM, 0.01 μM and […]).
The kinase assays described herein were performed at Millipore UK Ltd, Dundee Technology Park, Dundee DD2 1SW, UK
KDR (h) (VEGF-R2(h)) Assay […]

[8] = test system: U87MG glioblastoma cells; test: U87MG tumor xenograft model, TGI; type: in vivo, athymic nude mice; settings: 10 mg/kg p.o. QD, 16 days
Experimental: as §1, §2

[9] = molecular target: human VEGF-R2 (Homo sapiens (Human), UniProt P35968); test: VEGF-R2 cellular phosphorylation assay in HUE cells (Sandwich-ELISA); type: cell-based; settings: VEGF-A stimulated
human VEGF-R2, sequence (P35968 20-1356): as above
Experimental: (§3) The autophosphorylation level was determined Sandwich-ELISA technique.
VEGF-R2 Phosphorylation Assay:
Immortalized human umbilical vein endothelial cells (HUE) are known to overexpress human VEGF-R2. Stimulation of these cells with its physiological ligand VEGF-A results in a robust receptor autophosphorylation. Compounds are preincubated before cell stimulation to allow thorough target binding. Stimulation conditions are optimized to determine dose-related inhibition of the phospho-VEGF-R2 signal, which is subsequently quantified by Sandwich-ELISA technique. The assay is validated based on known inhibitors of VEGF-R2 kinase activity.

[10] = molecular target: AXL (Homo sapiens (Human), UniProt P30530); test: Axl cellular phosphorylation assay in transfected MEF cells (Sandwich-ELISA); type: cell-based; settings: MEF cells expressing full-length AXL
AXL, sequence (P30530 26-894): as the sequence (P30530 26-894) above
Experimental: as §3
Axl Phosphorylation Assay:
Cellular AXL phosphorylation assay was generated on a mouse embryonal fibroblast (MEF) background. Cells were transfected to express a full-length AXL protein. […] PhosphoAXL levels are quantified by Sandwich-ELISA technique.

[11] = test system: Caki-1 renal carcinoma cells; test: Caki-1 tumor xenograft model, TGI; type: in vivo, athymic nude mice; settings: 20 mg/kg p.o. QD, 21 days
Experimental: as §1, §2

[12] = molecular target: c-Met (h) (Homo sapiens (Human), UniProt P08581); test: c-Met (h) kinase assay (33P-ATP filter, Millipore); type: biochemical
c-Met (h), sequence (P08581 25-1390): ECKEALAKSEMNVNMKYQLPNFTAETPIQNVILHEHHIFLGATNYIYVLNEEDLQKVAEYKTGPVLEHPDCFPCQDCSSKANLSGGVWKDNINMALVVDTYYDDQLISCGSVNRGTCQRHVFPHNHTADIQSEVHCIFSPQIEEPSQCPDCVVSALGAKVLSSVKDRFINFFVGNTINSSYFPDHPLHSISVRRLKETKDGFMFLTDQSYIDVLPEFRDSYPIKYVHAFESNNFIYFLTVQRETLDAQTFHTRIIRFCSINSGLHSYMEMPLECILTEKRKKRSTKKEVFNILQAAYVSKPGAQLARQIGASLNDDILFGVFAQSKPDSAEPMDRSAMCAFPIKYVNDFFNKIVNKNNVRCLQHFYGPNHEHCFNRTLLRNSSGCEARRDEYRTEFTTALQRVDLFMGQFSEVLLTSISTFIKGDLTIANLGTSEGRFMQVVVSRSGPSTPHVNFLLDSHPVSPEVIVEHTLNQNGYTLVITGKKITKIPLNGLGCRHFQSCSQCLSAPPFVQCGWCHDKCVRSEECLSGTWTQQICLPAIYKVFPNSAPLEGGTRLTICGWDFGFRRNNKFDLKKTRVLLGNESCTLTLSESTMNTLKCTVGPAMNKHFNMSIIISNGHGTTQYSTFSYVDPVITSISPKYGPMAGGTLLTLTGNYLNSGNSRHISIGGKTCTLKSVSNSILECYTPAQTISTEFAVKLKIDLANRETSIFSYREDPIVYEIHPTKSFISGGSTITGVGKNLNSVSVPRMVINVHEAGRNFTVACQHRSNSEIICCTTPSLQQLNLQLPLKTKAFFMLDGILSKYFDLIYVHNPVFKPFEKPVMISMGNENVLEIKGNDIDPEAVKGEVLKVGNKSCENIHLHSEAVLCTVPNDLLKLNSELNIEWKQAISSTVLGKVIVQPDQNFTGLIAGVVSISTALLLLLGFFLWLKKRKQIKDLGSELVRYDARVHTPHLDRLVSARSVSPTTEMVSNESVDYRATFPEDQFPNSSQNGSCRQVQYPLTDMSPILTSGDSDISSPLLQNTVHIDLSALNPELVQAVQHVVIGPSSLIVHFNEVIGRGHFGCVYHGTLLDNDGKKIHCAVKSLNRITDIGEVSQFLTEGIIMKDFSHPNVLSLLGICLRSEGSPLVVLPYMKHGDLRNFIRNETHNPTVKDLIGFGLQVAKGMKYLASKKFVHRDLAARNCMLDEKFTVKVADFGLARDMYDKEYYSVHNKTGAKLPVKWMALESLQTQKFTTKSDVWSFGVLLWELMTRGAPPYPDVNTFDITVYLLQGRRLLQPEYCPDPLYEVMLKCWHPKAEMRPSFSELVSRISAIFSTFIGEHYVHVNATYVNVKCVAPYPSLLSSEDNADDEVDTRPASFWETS

c-Met, sequence (P08581 25-1390): as above

Cc1c(C(=O)Nc2ccc(Oc3ccnc4cc(OCC(C)(C)O)ccc34)c(F)c2)c(=O)n(-c2ccccc2)n1C [Example 1, N-(3-fluoro-4-((7-(2-hydroxy-2-methylpropoxy)quinolin-4-yl)oxy)phenyl)-1,5-dimethyl-3-oxo-2-phenyl-2,3-dihydro-1H-pyrazole-4-carboxamide]
IC50 [1]: 0.0069 µM
TGI % (on last day of dosing) NCI-H441 [2]: 97%
TGI % (on last day of dosing) Huh-7 [3]: 53%
TGI % (on last day of dosing) MDA-MB-231 ([4]; 10 mg/kg p.o. QD): 97%
TGI % (on last day of dosing) MDA-MB-231 ([4]; 20 mg/kg p.o. QD): 112%
TGI % (on last day of dosing) MDA-MB-231 ([4]; 40 mg/kg p.o. QD): 120%
inhibition of growth of MDA-MB-231 xenograft tumors (in words) [4]: inhibited the growth; also recorded: statistically significant, dose-dependent inhibition
IC50 [5]: 0.011 µM
TGI % (on last day of dosing) MKN45 [6]: 97%
IC50 [7]: 0.037 µM
TGI % (on last day of dosing) U87MG [8]: 98%
IC50 [9]: 0.0017 µM
IC50 [10]: < 0.001 µM
TGI % (on last day of dosing) Caki-1 [11]: 87%
IC50 [12]: 0.019 µM

Cc1c(C(=O)Nc2ccc(Oc3ccnc4cc(OCC(C)(C)O)ccc34)cc2)c(=O)n(-c2ccccc2)n1C [Example 9, N-(4-((7-(2-hydroxy-2-methylpropoxy)quinolin-4-yl)oxy)phenyl)-1,5-dimethyl-3-oxo-2-phenyl-2,3-dihydro-1H-pyrazole-4-carboxamide]
TGI % (on last day of dosing) U87MG [8]: 97%
IC50 [12]: 0.013 µM

Cc1c(C(=O)Nc2ccc(Oc3ccnc4cc(OC(C)(C)CO)ccc34)c(F)c2)c(=O)n(-c2ccccc2)n1C [Example 14, N-(3-fluoro-4-((7-((1-hydroxy-2-methylpropan-2-yl)oxy)quinolin-4-yl)oxy)phenyl)-1,5-dimethyl-3-oxo-2-phenyl-2,3-dihydro-1H-pyrazole-4-carboxamide]
IC50 [12]: 0.027 µM

COc1cc2c(Oc3ccc(NC(=O)c4c(C)n(C)n(-c5ccccc5)c4=O)cc3F)ccnc2cc1OCC(C)(C)O [Example 4, N-(3-fluoro-4-((7-(2-hydroxy-2-methylpropoxy)-6-methoxyquinolin-4-yl)oxy)phenyl)-1,5-dimethyl-3-oxo-2-phenyl-2,3-dihydro-1H-pyrazole-4-carboxamide]
IC50 [7]: 0.04 µM
IC50 [12]: 0.01 µM

Cc1c(C(=O)Nc2ccc(Oc3ccnc4cc(OC[C@H](C)O)ccc34)cc2)c(=O)n(-c2ccccc2)n1C [Example 12, (S)—N-(4-((7-(2-hydroxypropoxy)quinolin-4-yl)oxy)phenyl)-1,5-dimethyl-3-oxo-2-phenyl-2,3-dihydro-1H-pyrazole-4-carboxamide]
IC50 [12]: 0.013 µM

Cc1c(C(=O)Nc2ccc(Oc3ccnc4cc(OC[C@@H](C)O)ccc34)cc2)c(=O)n(-c2ccccc2)n1C [Example 11, (R)—N-(4-((7-(2-hydroxypropoxy)quinolin-4-yl)oxy)phenyl)-1,5-dimethyl-3-oxo-2-phenyl-2,3-dihydro-1H-pyrazole-4-carboxamide]
IC50 [12]: 0.015 µM

Cc1c(C(=O)Nc2ccc(Oc3ccnc4cc(OC[C@@H](C)O)ccc34)c(F)c2)c(=O)n(-c2ccccc2)n1C [Example 2, (R)—N-(3-fluoro-4-((7-(2-hydroxypropoxy)quinolin-4-yl)oxy)phenyl)-1,5-dimethyl-3-oxo-2-phenyl-2,3-dihydro-1H-pyrazole-4-carboxamide]
TGI % (on last day of dosing) MDA-MB-231 ([4]; 10 mg/kg p.o. QD): 72%
TGI % (on last day of dosing) MDA-MB-231 ([4]; 20 mg/kg p.o. QD): 87%
TGI % (on last day of dosing) MDA-MB-231 ([4]; 40 mg/kg p.o. QD): 96%
inhibition of growth of MDA-MB-231 xenograft tumors (in words) [4]: inhibited the growth; also recorded: statistically significant, dose-dependent inhibition
TGI % (on last day of dosing) MKN45 [6]: 22%
IC50 [7]: 0.023 µM
IC50 [12]: 0.007 µM
